Reference: patent publication US10167262B2, “Herbicidal substituted 3-arylpyrazoles” (FMC CORPORATION, priority 2014, dated 2019)

Columns and labels:
Assay in all cases: Test A pre-/postemergence greenhouse herbicide test, visual injury rating 0-100
Assay type in all cases: in vivo
[1] = test system: barnyardgrass (Echinochloa crus-galli)
Text: (§1) Seeds of plant species selected from barnyardgrass (Echinochloa crus-galli), large (Lg) crabgrass (Digitaria sanguinalis), giant foxtail (Setaria faberii), morningglory (Ipomoea spp.), pigweed (Amaranthus retroflexus), velvetleaf (Abutilon theophrasti), wheat (Triticum aestivum), and corn (Zea mays) were planted into a blend of loam soil and sand and treated preemergence with a directed soil spray using test chemicals formulated in a non-phytotoxic solvent mixture which included a surfactant. At the same time these species were also treated with postemergence applications of test chemicals formulated in the same manner. Plants ranged in height from 2 to 10 cm and were in the one- to two-leaf stage for the postemergence treatment. Treated plants and untreated controls were maintained in a greenhouse for approximately 10 days, after which time all treated plants were compared to untreated controls and visually evaluated for injury. Plant response ratings, summarized in Table A, are based on a 0 to 100 scale where 0 is no effect and 100 is complete control. A dash (-) response means no test result.

[2] = test system: corn (Zea mays)
Text: as §1

[3] = test system: giant foxtail (Setaria faberii)
Text: as §1

[4] = test system: large (Lg) crabgrass (Digitaria sanguinalis)
Text: as §1

[5] = test system: morningglory (Ipomoea spp.)
Text: as §1

[6] = test system: pigweed (Amaranthus retroflexus)
Text: as §1

[7] = test system: velvetleaf (Abutilon theophrasti)
Text: as §1

[8] = test system: wheat (Triticum aestivum)
Text: as §1

| Structure (SMILES) | Plant response rating (0 to 100 scale), Barnyardgrass ([1]; Postemergence, 125 g ai/ha) | Plant response rating (0 to 100 scale), Barnyardgrass ([1]; Postemergence, 500 g ai/ha) | Barnyardgrass plant response rating (0 = no effect, 100 = complete control) ([1]; Preemergence, 125 g ai/ha) | Plant response rating (0 to 100 scale), Barnyardgrass ([1]; Preemergence, 500 g ai/ha) | Plant response rating (0 to 100 scale), Corn ([2]; Postemergence, 125 g ai/ha) | Plant response rating (0 to 100 scale), Corn ([2]; Postemergence, 500 g ai/ha) | Corn plant response rating (0 = no effect, 100 = complete control) ([2]; Preemergence, 125 g ai/ha) | Plant response rating (0 to 100 scale), Corn ([2]; Preemergence, 500 g ai/ha) | Plant response rating (0 to 100 scale), Foxtail, Giant ([3]; Postemergence, 125 g ai/ha) | Plant response rating (0 to 100 scale), Foxtail, Giant ([3]; Postemergence, 500 g ai/ha) | Foxtail, Giant plant response rating (0 = no effect, 100 = complete control) ([3]; Preemergence, 125 g ai/ha) | Plant response rating (0 to 100 scale), Foxtail, Giant ([3]; Preemergence, 500 g ai/ha) | Plant response rating (0 to 100 scale), Crabgrass, Large ([4]; Postemergence, 125 g ai/ha) | Plant response rating (0 to 100 scale), Crabgrass, Large ([4]; Postemergence, 500 g ai/ha) | Crabgrass, Large plant response rating (0 = no effect, 100 = complete control) ([4]; Preemergence, 125 g ai/ha) | Plant response rating (0 to 100 scale), Crabgrass, Large ([4]; Preemergence, 500 g ai/ha) | Plant response rating (0 to 100 scale), Morningglory ([5]; Postemergence, 125 g ai/ha) | Plant response rating (0 to 100 scale), Morningglory ([5]; Postemergence, 500 g ai/ha) | Morningglory plant response rating (0 = no effect, 100 = complete control) ([5]; Preemergence, 125 g ai/ha) | Plant response rating (0 to 100 scale), Morningglory ([5]; Preemergence, 500 g ai/ha) | also measured |
| --- | --- | --- | --- | --- | --- | --- | --- | --- | --- | --- | --- | --- | --- | --- | --- | --- | --- | --- | --- | --- | --- |
| CON=C(c1cccs1)c1c[nH]nc1-c1cc(Cl)cc(Cl)c1 [Compound 32] | 0 | 0 | 0 | 0 | 0 | 0 | 0 | 0 | 0 | 0 | 0 | 0 | 0 | 0 | 0 | 0 | 0 | 0 | 0 | 0 | Plant response rating (0 to 100 scale), Pigweed ([6]; Postemergence, 125 g ai/ha): 0; Plant response rating (0 to 100 scale), Pigweed ([6]; Postemergence, 500 g ai/ha): 60; Pigweed plant response rating (0 = no effect, 100 = complete control) ([6]; Preemergence, 125 g ai/ha): 0; Plant response rating (0 to 100 scale), Velvetleaf ([7]; Postemergence, 125 g ai/ha): 60; Plant response rating (0 to 100 scale), Velvetleaf ([7]; Postemergence, 500 g ai/ha): 70; Velvetleaf plant response rating (0 = no effect, 100 = complete control) ([7]; Preemergence, 125 g ai/ha): 0; Plant response rating (0 to 100 scale), Velvetleaf ([7]; Preemergence, 500 g ai/ha): 0; Plant response rating (0 to 100 scale), Wheat ([8]; Postemergence, 125 g ai/ha): 0; Plant response rating (0 to 100 scale), Wheat ([8]; Postemergence, 500 g ai/ha): 0; Wheat plant response rating (0 = no effect, 100 = complete control) ([8]; Preemergence, 125 g ai/ha): 0; Plant response rating (0 to 100 scale), Wheat ([8]; Preemergence, 500 g ai/ha): 0 |
| FC(F)(F)Cn1cc(C(=NNc2ccccc2)c2ccccc2)c(-c2cc(Cl)cc(Cl)c2)n1 [Compound 34] | 0 | 0 | 0 | 0 | 0 | 0 | 0 | 0 | 0 | 0 | 0 | 0 | 0 | 0 | 0 | 0 | 0 | 0 | 0 | 0 | Plant response rating (0 to 100 scale), Pigweed ([6]; Postemergence, 125 g ai/ha): 0; Plant response rating (0 to 100 scale), Pigweed ([6]; Postemergence, 500 g ai/ha): 20; Pigweed plant response rating (0 = no effect, 100 = complete control) ([6]; Preemergence, 125 g ai/ha): 0; Plant response rating (0 to 100 scale), Pigweed ([6]; Preemergence, 500 g ai/ha): 0; Plant response rating (0 to 100 scale), Velvetleaf ([7]; Postemergence, 125 g ai/ha): 10; Plant response rating (0 to 100 scale), Velvetleaf ([7]; Postemergence, 500 g ai/ha): 30; Velvetleaf plant response rating (0 = no effect, 100 = complete control) ([7]; Preemergence, 125 g ai/ha): 0; Plant response rating (0 to 100 scale), Velvetleaf ([7]; Preemergence, 500 g ai/ha): 0; Plant response rating (0 to 100 scale), Wheat ([8]; Postemergence, 125 g ai/ha): 0; Plant response rating (0 to 100 scale), Wheat ([8]; Postemergence, 500 g ai/ha): 0; Wheat plant response rating (0 = no effect, 100 = complete control) ([8]; Preemergence, 125 g ai/ha): 0; Plant response rating (0 to 100 scale), Wheat ([8]; Preemergence, 500 g ai/ha): 0 |
| Clc1cc(Cl)cc(-c2n[nH]cc2C2(c3ccccc3)SCCS2)c1 [Compound 69] | 0 | 0 | 0 | 0 | 0 | 0 | 0 | 0 | 0 | 0 | 0 | 0 | 0 | 0 | 0 | 0 | 0 | 0 | 0 | 0 | Plant response rating (0 to 100 scale), Pigweed ([6]; Postemergence, 125 g ai/ha): 30; Plant response rating (0 to 100 scale), Pigweed ([6]; Postemergence, 500 g ai/ha): 80; Pigweed plant response rating (0 = no effect, 100 = complete control) ([6]; Preemergence, 125 g ai/ha): 0; Plant response rating (0 to 100 scale), Pigweed ([6]; Preemergence, 500 g ai/ha): 40; Plant response rating (0 to 100 scale), Velvetleaf ([7]; Postemergence, 125 g ai/ha): 20; Plant response rating (0 to 100 scale), Velvetleaf ([7]; Postemergence, 500 g ai/ha): 80; Velvetleaf plant response rating (0 = no effect, 100 = complete control) ([7]; Preemergence, 125 g ai/ha): 0; Plant response rating (0 to 100 scale), Velvetleaf ([7]; Preemergence, 500 g ai/ha): 20; Plant response rating (0 to 100 scale), Wheat ([8]; Postemergence, 125 g ai/ha): 0; Plant response rating (0 to 100 scale), Wheat ([8]; Postemergence, 500 g ai/ha): 0; Wheat plant response rating (0 = no effect, 100 = complete control) ([8]; Preemergence, 125 g ai/ha): 0 |
| CON=C(c1ccccc1)c1c[nH]nc1-c1cc(Cl)cc(Cl)c1 [Compound 64] | – | – | – | – | – | – | – | – | – | – | – | – | – | – | – | – | – | – | – | – | Plant response rating (0 to 100 scale), Barnyardgrass ([1]; Postemergence, 1000 g ai/ha): 0; Plant response rating (0 to 100 scale), Barnyardgrass ([1]; Preemergence, 1000 g ai/ha): 0; Plant response rating (0 to 100 scale), Corn ([2]; Postemergence, 1000 g ai/ha): 0; Plant response rating (0 to 100 scale), Corn ([2]; Preemergence, 1000 g ai/ha): 0; Plant response rating (0 to 100 scale), Foxtail, Giant ([3]; Postemergence, 1000 g ai/ha): 0; Plant response rating (0 to 100 scale), Foxtail, Giant ([3]; Preemergence, 1000 g ai/ha): 0; Plant response rating (0 to 100 scale), Crabgrass, Large ([4]; Postemergence, 1000 g ai/ha): 0; Plant response rating (0 to 100 scale), Crabgrass, Large ([4]; Preemergence, 1000 g ai/ha): 0; Plant response rating (0 to 100 scale), Morningglory ([5]; Postemergence, 1000 g ai/ha): 0; Plant response rating (0 to 100 scale), Morningglory ([5]; Preemergence, 1000 g ai/ha): 0; Plant response rating (0 to 100 scale), Pigweed ([6]; Postemergence, 1000 g ai/ha): 80; Plant response rating (0 to 100 scale), Pigweed ([6]; Preemergence, 1000 g ai/ha): 0; Plant response rating (0 to 100 scale), Velvetleaf ([7]; Postemergence, 1000 g ai/ha): 80; Plant response rating (0 to 100 scale), Velvetleaf ([7]; Preemergence, 1000 g ai/ha): 0; Plant response rating (0 to 100 scale), Wheat ([8]; Postemergence, 1000 g ai/ha): 0; Plant response rating (0 to 100 scale), Wheat ([8]; Preemergence, 1000 g ai/ha): 0 |
